From ChEMBL document CHEMBL5505975, “Design, synthesis and biological evaluation of CDC20 inhibitors for treatment of triple-negative breast cancer” (Eur J Med Chem, 2024) come the findings set out here.

The structures appear in SMILES notation.

The term IC50 denotes the concentration at which inhibition is half-maximal. The term Kd denotes the constant that tells how readily two partners part at equilibrium.

Data set [1] deals with MCF7. The data set is described as follows: Antiproliferative activity against human MCF7 cells assessed as reduction in cell viability incubated for 96 hrs by MTT assay. The following applies: MCF7, 96 h. For orientation: Formazan colour is commonly taken as a measure of viable cells.
The test system of data set [2] is MDA-MB-231. The data set is described as follows: Antiproliferative activity against human MDA-MB-231 cells assessed as reduction in cell viability incubated for 96 hrs by MTT assay. As to conditions: MDA-MB-231, 96 h.
In data set [3] the test system is A549. Kind of data set: Antiproliferative activity against human A549 cells assessed as reduction in cell viability incubated for 96 hrs by MTT assay. The following applies: A549, 96 h.
The test system of data set [4] is MDA-MB-468. The data set is described as follows: Antiproliferative activity against human MDA-MB-468 cells assessed as reduction in cell viability incubated for 96 hrs by MTT assay. As to conditions: MDA-MB-468, 96 h.
The nature of data set [5]: Cytotoxicity against human L02 cells assessed as reduction in cell viability incubated for 96 hrs by MTT assay. Format: toxicity, cell-based.
Data set [6] addresses Cell division cycle protein 20 homolog (Homo sapiens, UniProt Q12834). The data set is described as follows: Binding affinity human CDC20 assessed as dissociation constant by SPR analysis. A general note: Surface plasmon resonance follows binding to a sensor surface in real time, without labels.
In data set [7] the test system is MDA-MB-231. Kind of data set: Cell cycle arrest in human MDA-MB-231 cells assessed as G1 phase cells at 100 uM incubated for 24 hrs by PI staining based flow cytometric analysis (reference value: 51.5%). Format: functional. For orientation: Flow cytometry measures light scatter and fluorescence of single cells or particles in a stream.
Data set [8] has as its system MDA-MB-231. The data set is described as follows: Cell cycle arrest in human MDA-MB-231 cells assessed as S phase cells at 100 uM incubated for 24 hrs by PI staining based flow cytometric analysis (reference value: 29.9%). Format: functional.
Data set [9] has as its system MDA-MB-231. The data set is described as follows: Cell cycle arrest in human MDA-MB-231 cells assessed as G2 phase cells at 100 uM incubated for 24 hrs by PI staining based flow cytometric analysis (reference value: 18.6%). Format: functional.
Data set [10] has as its system MDA-MB-231. The data set is described as follows: Cell cycle arrest in human MDA-MB-231 cells assessed as G1 phase cells at 100 uM incubated for 48 hrs by PI staining based flow cytometric analysis (reference value: 51.5%). The data set is classed as functional.
Data set [11] concerns MDA-MB-231. The data set is described as follows: Cell cycle arrest in human MDA-MB-231 cells assessed as S phase cells at 100 uM incubated for 48 hrs by PI staining based flow cytometric analysis (reference value: 29.9%). The data set is classed as functional.
Data set [12] concerns MDA-MB-231. The data set is described as follows: Cell cycle arrest in human MDA-MB-231 cells assessed as G2 phase cells at 100 uM incubated for 48 hrs by PI staining based flow cytometric analysis (reference value: 18.6%). The data set is classed as functional.
Data set [13] has as its system MDA-MB-231. Kind of data set: Cell cycle arrest in human MDA-MB-231 cells assessed as G1 phase cells at 100 uM incubated for 72 hrs by PI staining based flow cytometric analysis (reference value: 51.5%). Format: functional.
Data set [14] deals with MDA-MB-231. The data set is described as follows: Cell cycle arrest in human MDA-MB-231 cells assessed as S phase cells at 100 uM incubated for 72 hrs by PI staining based flow cytometric analysis (reference value: 29.9%). Format: functional.
Data set [15] concerns MDA-MB-231. The data set is described as follows: Cell cycle arrest in human MDA-MB-231 cells assessed as G2 phase cells at 100 uM incubated for 72 hrs by PI staining based flow cytometric analysis (reference value: 18.6%). The data set is classed as functional.
In data set [16] the test system is MDA-MB-231. Kind of data set: Cell cycle arrest in human MDA-MB-231 cells assessed as G1 phase cells at 100 uM incubated for 48 hrs by PI staining based flow cytometric analysis (reference value: 76.7%). The data set is classed as functional.
Data set [17] deals with MDA-MB-231. Kind of data set: Cell cycle arrest in human MDA-MB-231 cells assessed as S phase cells at 100 uM incubated for 48 hrs by PI staining based flow cytometric analysis (reference value: 16.0%). The data set is classed as functional.
The subject of data set [18] is MDA-MB-231. The data set is described as follows: Cell cycle arrest in human MDA-MB-231 cells assessed as G2 phase cells at 100 uM incubated for 48 hrs by PI staining based flow cytometric analysis (reference value: 7.3%). The data set is classed as functional.
The subject of data set [19] is MDA-MB-231. Kind of data set: Induction of apoptosis in human MDA-MB-231 cells assessed as viable cells at 100 uM incubated for 48 hrs by Annexin V-FITC/PI staining based flow cytometric analysis (reference value: 95.10%). The data set is classed as functional. The following applies: read-out: Activity.
The test system of data set [20] is MDA-MB-231. Kind of data set: Induction of apoptosis in human MDA-MB-231 cells assessed as early apoptotic cells at 100 uM incubated for 48 hrs by Annexin V-FITC/PI staining based flow cytometric analysis (reference value: 2.25 %). The data set is classed as functional.
Data set [21] relates to MDA-MB-231. Kind of data set: Induction of apoptosis in human MDA-MB-231 cells assessed as late apoptotic cells at 100 uM incubated for 48 hrs by Annexin V-FITC/PI staining based flow cytometric analysis (reference value: 1.06%). The data set is classed as functional.
In data set [22] the test system is MDA-MB-231. Kind of data set: Induction of apoptosis in human MDA-MB-231 cells assessed as necrotic cells at 100 uM incubated for 48 hrs by Annexin V-FITC/PI staining based flow cytometric analysis (reference value: 1.63%). Format: functional.

Chain of Cell division cycle protein 20 homolog (Q12834 whole entry): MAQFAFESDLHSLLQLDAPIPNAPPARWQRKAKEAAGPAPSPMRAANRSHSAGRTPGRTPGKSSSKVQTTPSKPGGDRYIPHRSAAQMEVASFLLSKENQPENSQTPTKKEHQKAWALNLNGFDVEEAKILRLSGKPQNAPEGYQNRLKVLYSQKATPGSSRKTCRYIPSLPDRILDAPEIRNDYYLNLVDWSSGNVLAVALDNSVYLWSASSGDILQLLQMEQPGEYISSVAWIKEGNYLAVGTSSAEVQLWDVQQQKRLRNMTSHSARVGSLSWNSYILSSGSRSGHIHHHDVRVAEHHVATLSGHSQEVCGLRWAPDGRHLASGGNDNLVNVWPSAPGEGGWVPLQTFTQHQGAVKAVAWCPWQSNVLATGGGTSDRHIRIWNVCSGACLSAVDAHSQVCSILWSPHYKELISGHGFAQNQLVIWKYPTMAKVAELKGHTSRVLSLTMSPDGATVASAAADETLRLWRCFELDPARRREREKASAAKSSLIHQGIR

In the case of `Cc1ncc([N+](=O)[O-])n1CCOC(=O)NC(Nc1ncccn1)C(Cl)(Cl)Cl` (configuration not stated), the IC50 was found to be 109 µM in data set [1], 139 µM in data set [2], 114 µM in data set [3] and 83.4 µM in data set [4]. Further, the concentration for half-maximal inhibition (IC50) at 96 h in [5] was over 200 µM. In addition, in data set [6], the dissociation constant (Kd) amounted to 172 µM. Besides, the Activity in [7] worked out at 28.8%; in data set [8], 45.1%; in [9], 26.1%; in data set [10] it was 48.8%; in data set [11], 23.5%; in data set [12], 27.7%. The Activity in data set [13] came out at 39.2%; in data set [14] it was 24.6%; in data set [15] it was 36.2%; in [16], 50.3%; in data set [17], 38%; in [18] it was 11.7%. Further, the Activity in data set [20] stood at 3.22%; in data set [21], 3.12%; in [22], 2.43%. Besides, the viability at 100 µM in data set [19] was found to be 91.2%.
